Assay results taken from patent publication US7109200B2, “Carbamate derivatives, process for producing the same and use thereof” (Takeda Pharmaceutical Company Limited, priority 2000, dated 2006).

Tests used:
human FXa = human FXa (Homo sapiens, UniProt P00742); assay: Human activated coagulation factor X (FXa) inhibiting activity; type: biochemical; details: substrate S-2765, 37° C., absorbance at 405 nm
Method: (1) Human Activated Coagulation Factor X (FXa) Inhibiting Activity
Method: A cuvette was charged with 225 μl of 0.05 M tris buffer (pH 8.3) containing 0.145 M sodium chloride and 2 mM calcium chloride, 5 μl of a sample (test compound dissolved in dimethyl sulfoxide) and 10 μl of human FXa (0.3 unit/ml), which were reacted at 37° C. for 10 minutes and then combined with 10 μl of a substrate (3 mM, S-2765) and further reacted at 37° C. for 10 minutes. Then the reaction was terminated by adding 25 μl of 50% aqueous acetic acid, and the change in the absorbance at 405 nm was determined using a spectrophotometer to calculate the concentration at which the FXa effect was inhibited by 50% (IC50).

Human normal plasma = assay: In vitro clotting time measurement: prothrombin time (PT); type: biochemical; details: PT 2-fold extending concentration (CT2), rabbit brain-derived tissue thromboplastin
Method: (2) In vitro Clotting Time Measurement
(2-1) Prothrombin Time (PT) Measurement:
A PT-test WAKO (WAKO PURE CHEMICAL) was employed together with an automatic coagulometer (STA compact DIAGNOSTICA STAGO). 97 μl of Human normal plasma (fresh human plasma, FFP, SEKISUI KAGAKU KOGYO) was combined with 3 μl of a test substance and pre-incubated at 37° C. for 4 minutes. 50 μl of the plasma described above was combined with 100 μl of rabbit brain-derived tissue thromboplastin solution and the time for the clotting was measured. The test substance was used after dissolving in dimethyl sulfoxide (DMSO). A concentration required for 2-fold prolongation of the clotting time was calculated based on the clotting time observed when DMSO was added instead of the test substance.

Chain of human FXa (P00742 235-488 limits assumed): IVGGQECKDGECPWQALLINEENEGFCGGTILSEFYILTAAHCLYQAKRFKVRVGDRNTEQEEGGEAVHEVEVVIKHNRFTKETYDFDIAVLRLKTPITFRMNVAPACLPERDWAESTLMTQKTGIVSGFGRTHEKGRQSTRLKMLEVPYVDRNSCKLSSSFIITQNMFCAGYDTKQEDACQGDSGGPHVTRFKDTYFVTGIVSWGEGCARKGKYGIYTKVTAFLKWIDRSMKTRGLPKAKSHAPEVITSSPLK
Chain of human FXa (P00742 41-179 partner limits assumed): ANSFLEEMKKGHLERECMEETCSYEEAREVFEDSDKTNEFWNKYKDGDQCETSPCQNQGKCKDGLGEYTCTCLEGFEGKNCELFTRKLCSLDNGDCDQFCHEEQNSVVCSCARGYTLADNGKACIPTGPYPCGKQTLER

IC50 (human FXa): 4.6 nM
SMILES: CCOC(=O)NC1(CN2CCN(S(=O)(=O)c3ccc4cc(Cl)ccc4c3)CC2=O)CCN(c2ccncc2)CC1 [Example 1, 4-(6-Chloronaphthalene-2-sulfonyl)-1-[4-ethoxycarbonylamino-1-(4-pyridyl)-4-piperidylmethyl]-2-piperazinone]
PT CT2 (Human normal plasma): 0.27 µM
